This passage reports ELISpot and cytokine results from patent publication US20260240975A1, “VALIDATED HPV16-DERIVED S[…]” (Deutsches Krebsforschungszentrum Stiftung des öffentlichen …, priority 2023, published 2026).

Experiment [1] relates to short-term antigen-specific T cell lines generated from PBMCs. The experiment is described as follows: Interferon-γ ELISpot assay on short-term T cell lines. The experiment is classed as cell-based, human. Also on record: key: +: ELISPOT: Immungenicity of the peptide shown by IFN-gamma ELISPOT analysis; * Highlights data from published resources; +*: * Highlights data from published resources.

The subject of experiment [2] is peptide-specific T cell cultures. In words: T cell phenotyping and intracellular cytokine staining (flow cytometry). The experiment is classed as cell-based, human. Set-up: key: +: cytokine: Immunogenicity of the peptide shown by intracellular cytokine staining (IFN-gamma, TNF-alpha). The settings on record: IFN-gamma, TNF-alpha.

On to “3 (TIHDIILQCVY; Human papillomavirus 16) [compound 3]”, for which, in experiment [1] (HLA restriction A01), the ELISpot entry is reported as “+”. Moreover, in experiment [2] (HLA restriction A01), the cytokine entry was “+”. Take “4 (YGVCDKCLKFY; Human papillomavirus 16) [compound 4]”: the ELISpot result in experiment [1] (HLA restriction A01) is given as “+”. For the same substance, the cytokine entry in experiment [2] (HLA restriction A01) is “+”. Regarding “5 (EYRYYCYSLY; Human papillomavirus 16) [compound 5]”, in experiment [1] (HLA restriction A01), the ELISpot entry was “+”. Besides, the cytokine entry in experiment [2] (HLA restriction A01) is listed as “+”.

In the case of “6 (DLQPETTDLY; Human papillomavirus 16) [compound 6]”, the ELISpot result in experiment [1] (HLA restriction A01) is reported as “+”. Also, the cytokine result in experiment [2] (HLA restriction A01) is reported as “+”. In the case of “7 (TTDLYCYEQ; Human papillomavirus 16) [compound 7]”, the ELISpot entry in experiment [1] (HLA restriction A01) is recorded as “+”. In addition, the cytokine entry in experiment [2] (HLA restriction A01) is on record as “+”. “8 (SKISEYRHYCY; Human papillomavirus 16) [compound 8]”: in experiment [1] (HLA restriction A01), the ELISpot result is “+”. Consider “9 (SEYRHYCYSLY; Human papillomavirus 16) [compound 9]”, for which the ELISpot result in experiment [1] (HLA restriction A01) is on record as “+”; in experiment [1] (HLA restriction B15), 1. As for “10 (ETTDLYCY; Human papillomavirus 16) [compound 10]”, the ELISpot result in experiment [1] (HLA restriction A01) is “+”. As to “24 (LLMGTLGIVC; Human papillomavirus 16) [compound 24]”, the ELISpot entry in experiment [1] (HLA restriction A02) is listed as “+”. Also, the cytokine result in experiment [2] (HLA restriction A02) was “+”.

“28 (KLPQLCTELQT; Human papillomavirus 16) [compound 28]”: the ELISpot entry in experiment [1] (HLA restriction A02) is listed as “+”. For the substance “29 (ELQTTIHDI; Human papillomavirus 16) [compound 29]”, in experiment [1] (HLA restriction A02), the ELISpot result is “+”.

As to “32 (TLHEYMLDLQP; Human papillomavirus 16) [compound 32]”, in experiment [1] (HLA restriction A02), the ELISpot entry is “+”.

Consider “35 (IILECVYCK; Human papillomavirus 16) [compound 35]”, for which the ELISpot entry in experiment [1] (HLA restriction A11) was “+”. Take “36 (HLDKKQRFH; Human papillomavirus 16) [compound 36]”: in experiment [1] (HLA restriction A03), the ELISpot entry is on record as “+”. As to “47 (MFQDPQERPRK; Human papillomavirus 16) [compound 47]”, the ELISpot result in experiment [1] (HLA restriction A03) is “+”.

Consider “48 (YAVCDKCLKFY; Human papillomavirus 16) [compound 48]”, for which the ELISpot result in experiment [1] (HLA restriction A11) was “+”. Consider “49 (AVCDKCLK; Human papillomavirus 16) [compound 49]”, for which the ELISpot entry in experiment [1] (HLA restriction A03) is reported as “+”.

For the substance “50 (KCLKFYSKI; Human papillomavirus 16) [compound 50]”, the ELISpot entry in experiment [1] (HLA restriction A03) is listed as “+”. For the substance “51 (KFYSKISEY; Human papillomavirus 16) [compound 51]”, the ELISpot result in experiment [1] (HLA restriction A03) and in experiment [1] (HLA restriction A24) was “+” each time.

Turning to “52 (KFYSKISEYR; Human papillomavirus 16) [compound 52]”, the ELISpot entry in experiment [1] (HLA restriction A03) is “+”. As to “54 (TTLEQQYNK; Human papillomavirus 16) [compound 54]”, the ELISpot result in experiment [1] (HLA restriction A03) is “+”. In the case of “56 (LIRCINCQK; Human papillomavirus 16) [compound 56]”, the ELISpot entry in experiment [1] (HLA restriction A03) is “+”.

In the case of “57 (RCINCQKPLCP; Human papillomavirus 16) [compound 57]”, the ELISpot entry in experiment [1] (HLA restriction A03) was “+”. With “58 (KQRFHNIRGR; Human papillomavirus 16) [compound 58]”, the ELISpot result in experiment [1] (HLA restriction A03) is on record as “+”. For “59 (LGIVCPICSQK; Human papillomavirus 16) [compound 59]”, the ELISpot entry in experiment [1] (HLA restriction A11) is reported as “+”.

Regarding “63 (PYAVCDKCLKF; Human papillomavirus 16) [compound 63]”, the ELISpot entry in experiment [1] (HLA restriction A24) is recorded as “+”. Take “72 (YSLYGTTL; Human papillomavirus 16) [compound 72]”: the ELISpot entry in experiment [1] (HLA restriction A24) is listed as “+”.

As for “73 (HLDKKQRFHNI; Human papillomavirus 16) [compound 73]”, the ELISpot result in experiment [1] (HLA restriction A24) is listed as “+”. Turning to “74 (DKKQRFHN; Human papillomavirus 16) [compound 74]”, the ELISpot entry in experiment [1] (HLA restriction A24) is listed as “+”. Regarding “75 (AHYNIVTF; Human papillomavirus 16) [compound 75]”, the ELISpot result in experiment [1] (HLA restriction A24) is “+”. In the case of “82 (RPRKLPQLCT; Human papillomavirus 16) [compound 82]”, the ELISpot result in experiment [1] (HLA restriction B07) was “+”. As to “84 (RCMSCCRSSR; Human papillomavirus 16) [compound 84]”, the ELISpot entry in experiment [1] (HLA restriction B07) is “+”. In the case of “89 (QQLLRREVY; Human papillomavirus 16) [compound 89]”, the ELISpot result in experiment [1] (HLA restriction B15) is “+”. In the case of “93 (FAFRDLCIVY; Human papillomavirus 16) [compound 93]”, the ELISpot entry in experiment [1] (HLA restriction B15) is “+”. As for “94 (LCIVYRDGNPY; Human papillomavirus 16) [compound 94]”, the ELISpot result in experiment [1] (HLA restriction B15) is listed as “+”.

Consider “96 (LLRREVYDFAF; Human papillomavirus 16) [compound 96]”, for which the ELISpot result in experiment [1] (HLA restriction B15) is “+”. Turning to “97 (LRREVYDFAF; Human papillomavirus 16) [compound 97]”, in experiment [1] (HLA restriction B15), the ELISpot result was “+”. Take “98 (IVYRDGNPYAV; Human papillomavirus 16) [compound 98]”: the ELISpot result in experiment [1] (HLA restriction B15) is listed as “+”. Take “99 (AVCDKCLKF; Human papillomavirus 16) [compound 99]”: the ELISpot result in experiment [1] (HLA restriction B15) is “+”. In the case of “100 (CLKFYSKISEY; Human papillomavirus 16) [compound 100]”, the ELISpot entry in experiment [1] (HLA restriction B15) is “+”. As for “101 (FYSKISEY; Human papillomavirus 16) [compound 101]”, in experiment [1] (HLA restriction B15), the ELISpot result is “+”.

As to “104 (SEYRHYCY; Human papillomavirus 16) [compound 104]”, the ELISpot entry in experiment [1] (HLA restriction B15) is on record as “+”. Consider “105 (QQYNKPLCDL; Human papillomavirus 16) [compound 105]”, for which, in experiment [1] (HLA restriction B15), the ELISpot entry is “+”.

Regarding “106 (CQKPLCPEE; Human papillomavirus 16) [compound 106]”, the ELISpot result in experiment [1] (HLA restriction B15) is recorded as “+”.

As to “107 (KQRHLDKKQRF; Human papillomavirus 16) [compound 107]”, the ELISpot result in experiment [1] (HLA restriction B15) is “+”. Take “109 (TLHEYMLDL; Human papillomavirus 16) [compound 109]”: in experiment [1] (HLA restriction B15), the ELISpot result is “+”. As for “110 (GQAEPDRAH; Human papillomavirus 16) [compound 110]”, the ELISpot entry in experiment [1] (HLA restriction B15) was “+”. With “112 (TTDLYCYEQL; Human papillomavirus 16) [compound 112]”, the ELISpot entry in experiment [1] (HLA restriction A01) was “+”. Take “113 (SEYRHYCY; Human papillomavirus 16) [compound 113]”: the ELISpot entry in experiment [1] (HLA restriction A01) is on record as “+”. For “114 (IHEIILECVY; Human papillomavirus 16) [compound 114]”, the ELISpot result in experiment [1] (HLA restriction A01) is “+”. As for “116 (GTTLEQQYNK; Human papillomavirus 16) [compound 116]”, the ELISpot entry in experiment [1] (HLA restriction A03) is on record as “+”. On to “119 (HYNIVTFC; Human papillomavirus 16) [compound 119]”, for which the ELISpot entry in experiment [1] (HLA restriction A24) is reported as “+”. “123 (CPDEKQRHL; Human papillomavirus 16) [compound 123]”: in experiment [1] (HLA restriction B07), the ELISpot entry is recorded as “+”. Still for that read-out and setting: as for “124 (LPQLCTELQT; Human papillomavirus 16) [compound 124]”, the entry is “+”. In the case of “126 (KISEYRHY; Human papillomavirus 16) [compound 126]”, the ELISpot result in experiment [1] (HLA restriction B15) is “+”. As for “127 (RGRWTGRCM; Human papillomavirus 16) [compound 127]”, the ELISpot result in experiment [1] (HLA restriction B15) is reported as “+”. Consider “128 (AGQAEPDRAHY; Human papillomavirus 16) [compound 128]”, for which the ELISpot result in experiment [1] (HLA restriction B15) is given as “+”. For the substance “129 (FYSKISEY; Human papillomavirus 16) [compound 129]”, in experiment [1] (HLA restriction B15), the ELISpot entry is listed as “+”.
